Measured values: patent US8735364B2, “Antisense modulation of apolipoprotein B expression” (Genzyme Corporation, priority 2001, dated 2014)
Oligonucleotides are written 5' to 3', each unit as a sugar letter and its base; * is a phosphorothioate linkage, no mark a phosphodiester; rarer units and linkages stand in square brackets, end groups in braces. Plain capitals give the bases only. e = 2'-O-(2-methoxyethyl) (MOE); [5mC] = 5-methylcytosine; d = 2'-deoxy (DNA)

What follows are substances tested on mouse apolipoprotein B mRNA (assay: Inhibition of mouse apolipoprotein B mRNA levels in primary hepatocytes, quantitative real-time PCR). Conditions: 50 nM.
Format: cell-based
Design: %INHIB of mouse apolipoprotein B mRNA levels: concentration or dose not given beside the values
Procedure: Primary mouse hepatocytes were prepared from CD-1 mice purchased from Charles River Labs (Wilmington, Mass.) and were routinely cultured in Hepatoyte Attachment Media (Gibco) supplemented with 10% Fetal Bovine Serum (Gibco/Life Technologies, Gaithersburg, Md.), 250 nM dexamethasone (Sigma), and 10 nM bovine insulin (Sigma). Cells were seeded into 96-well plates (Falcon-Primaria #3872) at a density of 10000 cells/well for use in RT-PCR analysis.
(§1) When cells reached 80% confluency, they were treated with oligonucleotide. For cells grown in 96-well plates, wells were washed once with 200 μL OPTI-MEM™-1 reduced-serum medium (Gibco BRL) and then treated with 130 μL of OPTI-MEM™-1 containing 3.75 μg/mL LIPOFECTIN™ (Gibco BRL) and the desired concentration of oligonucleotide. After 4-7 hours of treatment, the medium was replaced with fresh medium. Cells were harvested 16-24 hours after oligonucleotide treatment.
(§2) Quantitation of apolipoprotein B mRNA levels was determined by real-time quantitative PCR using the ABI PRISM™ 7700 Sequence Detection System (PE-Applied Biosystems, Foster City, Calif.) according to manufacturer's instructions. This is a closed-tube, non-gel-based, fluorescence detection system which allows high-throughput quantitation of polymerase chain reaction (PCR) products in real-time. As opposed to standard PCR, in which amplification products are quantitated after the PCR is completed, products in real-time quantitative PCR are quantitated as they accumulate. This is accomplished by including in the PCR reaction an oligonucleotide probe that anneals specifically between the forward and reverse PCR primers, and contains two fluorescent dyes. A reporter dye (e.g., JOE, FAM, or VIC, obtained from either Operon Technologies Inc., Alameda, Calif. or PE-Applied Biosystems, Foster City, Calif.) is attached to the 5′ end of the probe and a quencher dye (e.g., TAMRA, obtained from either Operon Technologies Inc., Alameda, Calif. or PE-Applied Biosystems, Foster City, Calif.) is attached to the 3′ end of the probe. When the probe and dyes are intact, reporter dye emission is quenched by the proximity of the 3′ quencher dye. During amplification, annealing of the probe to the target sequence creates a substrate that can be cleaved by the 5′-exonuclease activity of Taq polymerase. […] With each cycle, additional reporter dye molecules are cleaved from their respective probes, and the fluorescence intensity is monitored at regular intervals by laser optics built into the ABI PRISM™ 7700 Sequence Detection System. In each assay, a series of parallel reactions containing serial dilutions of mRNA from untreated control samples generates a standard curve that is used to quantitate the percent inhibition after antisense oligonucleotide treatment of test samples.
(§3) PCR reagents were obtained from PE-Applied Biosystems, Foster City, Calif. RT-PCR reactions were carried out by adding 25 μL PCR cocktail (1× TAQMAN™ buffer A, 5.5 mM MgCl2, 300 μM each of DATP, dCTP and dGTP, 600 μM of dUTP, 100 nM each of forward primer, reverse primer, and probe, 20 Units RNAse inhibitor, 1.25 Units AMPLITAQ GOLD™, and 12.5 Units MuLV reverse transcriptase) to 96 well plates containing 25 μL total RNA solution. The RT reaction was carried out by incubation for 30 minutes at 48° C. Following a 10 minute incubation at 95° C. to activate the AMPLITAQ GOLD™, 40 cycles of a two-step PCR protocol were carried out: 95° C. for 15 seconds (denaturation) followed by 60° C. for 1.5 minutes (annealing/extension).
(§4) Gene target quantities obtained by real time RT-PCR are normalized using either the expression level of GAPDH, a gene whose expression is constant, or by quantifying total RNA using RiboGreen™ (Molecular Probes, Inc. Eugene, Oreg.). GAPDH expression is quantified by real time RT-PCR, by being run simultaneously with the target, multiplexing, or separately. Total RNA is quantified using RiboGreen™ RNA quantification reagent from Molecular Probes. […]

Substance	Percent Inhibition of mouse apolipoprotein B mRNA levels [%]
147764 (antisense eG*eT*e[5mC]*e[5mC]*e[5mC]*dT*dG*dA*dA*dG*dA*dT*dG*dT*d[5mC]*eA*eA*eT*eG*e[5mC]) [compound 147764]	48

Same assay, conditions: 150 nM

Substance	Percent Inhibition of mouse apolipoprotein B mRNA levels [%]
147764 (antisense eG*eT*e[5mC]*e[5mC]*e[5mC]*dT*dG*dA*dA*dG*dA*dT*dG*dT*d[5mC]*eA*eA*eT*eG*e[5mC]) [compound 147764]	84

Same assay, conditions: 300 nM

Substance	Percent Inhibition of mouse apolipoprotein B mRNA levels [%]
147764 (antisense eG*eT*e[5mC]*e[5mC]*e[5mC]*dT*dG*dA*dA*dG*dA*dT*dG*dT*d[5mC]*eA*eA*eT*eG*e[5mC]) [compound 147764]	90

Same assay, conditions: averages from two experiments

Substance	%INHIB of mouse apolipoprotein B mRNA levels [%]
147764 (antisense eG*eT*e[5mC]*e[5mC]*e[5mC]*dT*dG*dA*dA*dG*dA*dT*dG*dT*d[5mC]*eA*eA*eT*eG*e[5mC]) [compound 147764]	97
147773 (antisense e[5mC]*eA*eT*e[5mC]*eA*dG*dA*d[5mC]*dG*dT*dG*dA*dT*dG*dT*eT*e[5mC]*e[5mC]*e[5mC]*eT) [compound 147773]	85
147775 (antisense e[5mC]*eT*eG*eT*e[5mC]*dA*dT*dG*dA*d[5mC]*dT*dG*d[5mC]*d[5mC]*d[5mC]*eT*eT*eT*eA*e[5mC]) [compound 147775]	52
147488 (antisense eA*eG*e[5mC]*eT*eT*dG*d[5mC]*dT*dT*dG*dT*dT*dG*dG*dG*e[5mC]*eA*e[5mC]*eG*eG) [compound 147488]	72
147778 (antisense eT*e[5mC]*eA*eG*eA*dT*dA*dT*dA*d[5mC]*dA*dT*dT*dG*dG*e[5mC]*eT*eT*e[5mC]*eA) [compound 147778]	14
147493 (antisense eG*e[5mC]*eT*eT*e[5mC]*dA*dT*dT*dA*dT*dA*dG*dG*dA*dG*eG*eT*eG*eG*eT) [compound 147493]	41
147506 (antisense eA*eG*eG*eA*eA*dG*dG*dA*dA*d[5mC]*dT*d[5mC]*dT*dT*dG*eA*eT*eA*eT*eT) [compound 147506]	58
147501 (antisense e[5mC]*eT*eT*eG*eG*dT*dT*dA*dA*dA*d[5mC]*dT*dA*dA*dT*eG*eG*eT*eG*e[5mC]) [compound 147501]	18
147482 (antisense eG*eT*e[5mC]*e[5mC]*eA*dG*d[5mC]*d[5mC]*dT*dA*dG*dG*dA*dA*d[5mC]*eA*e[5mC]*eT*e[5mC]*eA) [compound 147482]	59

These substances were tested on human apolipoprotein B mRNA (assay: Inhibition of human apolipoprotein B mRNA levels in HepG2 cells, quantitative real-time PCR). Conditions: averages from two experiments.
Format: cell-based
Design: %INHIB of human apolipoprotein B mRNA levels: concentration or dose not given beside the values
Procedure: The human hepatoblastoma cell line HepG2 was obtained from the American Type Culture Collection (Manassas, Va.). HepG2 cells were routinely cultured in Eagle's MEM supplemented with 10% fetal calf serum, non-essential amino acids, and 1 mM sodium pyruvate (Gibco/Life Technologies, Gaithersburg, Md.). Cells were routinely passaged by trypsinization and dilution when they reached 90% confluence. Cells were seeded into 96-well plates (Falcon-Primaria #3872) at a density of 7000 cells/well for use in RT-PCR analysis.
as §1, §2, §3
as §4, with “separately.” for “separately. Total RNA is quantified using RiboGreen™ RNA quantification reagent from Molecular Probes.”

Substance	%INHIB of human apolipoprotein B mRNA levels [%]
147801 (antisense e[5mC]*eA*eG*eA*e[5mC]*d[5mC]*d[5mC]*dG*dA*d[5mC]*dT*d[5mC]*dG*dT*dG*eG*eA*eA*eG*eA) [compound 147801]	38
147794 (antisense eG*eT*eA*eA*eT*d[5mC]*dT*dT*d[5mC]*dA*dT*d[5mC]*d[5mC]*d[5mC]*d[5mC]*eA*eG*eT*eG*e[5mC]) [compound 147794]	47
147810 (antisense eA*eT*eT*eT*e[5mC]*dA*dG*d[5mC]*dA*dT*dA*dT*dG*dA*dG*e[5mC]*e[5mC]*e[5mC]*eA*eT) [compound 147810]	0
147786 (antisense e[5mC]*eT*eT*eG*eA*dA*dT*d[5mC]*dA*dG*d[5mC]*dA*dG*dT*d[5mC]*e[5mC]*e[5mC]*eA*eG*eG) [compound 147786]	34
147825 (antisense eA*eG*eA*eA*eG*d[5mC]*dT*dG*d[5mC]*d[5mC]*dT*d[5mC]*dT*dT*d[5mC]*eT*eT*e[5mC]*e[5mC]*e[5mC]) [compound 147825]	72
147807 (antisense eG*eG*e[5mC]*eG*eT*dA*dG*dA*dG*dA*d[5mC]*d[5mC]*d[5mC]*dA*dT*e[5mC]*eA*e[5mC]*eA*eT) [compound 147807]	25
147828 (antisense eA*e[5mC]*eG*eT*eT*dA*dT*d[5mC]*d[5mC]*dT*dT*dG*dA*dG*dT*e[5mC]*e[5mC]*e[5mC]*eT*eG) [compound 147828]	12
147790 (antisense eT*eG*eT*eG*e[5mC]*dT*dA*d[5mC]*d[5mC]*dA*dT*d[5mC]*d[5mC]*d[5mC]*dA*eT*eA*e[5mC]*eT*eT) [compound 147790]	33
147815 (antisense eT*eG*eG*e[5mC]*e[5mC]*dT*dA*d[5mC]*d[5mC]*dA*dG*dA*dG*dA*d[5mC]*eA*eG*eG*eT*eA) [compound 147815]	45
